In this series the test system is CCRIS mutagenicity, Ames/micronucleus/aberration tests. Briefly: CCRIS mutagenicity studies.
The mark [1] stands for this setting: Test System: AMES SALMONELLA TYPHIMURIUM, Strain/Indicator: TA98, Metabolic Activation: NONE, Method: STANDARD PLATE.
Setting [2] is: Test System: AMES SALMONELLA TYPHIMURIUM, Strain/Indicator: TA100, Metabolic Activation: NONE, Method: STANDARD PLATE.
The mark [3] stands for this setting: Test System: AMES SALMONELLA TYPHIMURIUM, Strain/Indicator: TA98, Metabolic Activation: RAT, LIVER, S-9, AROCLOR 1254, Method: STANDARD PLATE.

This note sets out measurements from PubChem BioAssay AID1259407 (Chemical Carcinogenesis Research Information System (CCRIS), 2018).

Molecules are shown by their SMILES. The source made the active and inactive calls. No rule for the calls is given here.

Turning to `Nc1cccc(N)n1`, the mutagenic call runs as follows: (Test System: AMES SALMONELLA TYPHIMURIUM, Strain/Indicator: TA98, Metabolic Activation: NONE, Method: PREINCUBATION) “inactive; negative”; (Test System: AMES SALMONELLA TYPHIMURIUM, Strain/Indicator: TA98, Metabolic Activation: RAT, LIVER, S-9, PCB, Method: PREINCUBATION) “active; positive”; (Test System: AMES SALMONELLA TYPHIMURIUM, Strain/Indicator: TA98, Metabolic Activation: RAT, LIVER, S-9, PHENOBARBITAL AND BETA-NAPHTHOFLAVONE, Method: PREINCUBATION) “inactive; negative”; (Test System: AMES SALMONELLA TYPHIMURIUM, Strain/Indicator: TA100, Metabolic Activation: NONE, Method: PREINCUBATION) “inactive; negative”; (Test System: AMES SALMONELLA TYPHIMURIUM, Strain/Indicator: TA100, Metabolic Activation: RAT, LIVER, S-9, PCB, Method: PREINCUBATION) “inactive; negative”; (Test System: AMES SALMONELLA TYPHIMURIUM, Strain/Indicator: TA100, Metabolic Activation: RAT, LIVER, S-9, PHENOBARBITAL AND BETA-NAPHTHOFLAVONE, Method: PREINCUBATION) “inactive; negative”. Also, the mutagenic call reads like this: (Test System: AMES SALMONELLA TYPHIMURIUM, Strain/Indicator: TA1535, Metabolic Activation: NONE, Method: PREINCUBATION) “inactive; negative”; (Test System: AMES SALMONELLA TYPHIMURIUM, Strain/Indicator: TA1535, Metabolic Activation: RAT, LIVER, S-9, PHENOBARBITAL AND BETA-NAPHTHOFLAVONE, Method: PREINCUBATION) “inactive; negative”; (Test System: AMES SALMONELLA TYPHIMURIUM, Strain/Indicator: TA1537, Metabolic Activation: RAT, LIVER, S-9, PHENOBARBITAL AND BETA-NAPHTHOFLAVONE, Method: PREINCUBATION) “active; positive”; (Test System: E. COLI, Strain/Indicator: WP2UVRA, Metabolic Activation: NONE, Method: PREINCUBATION) “inactive; negative”; (Test System: E. COLI, Strain/Indicator: WP2UVRA, Metabolic Activation: RAT, LIVER, S-9, PHENOBARBITAL AND BETA-NAPHTHOFLAVONE, Method: PREINCUBATION) “inactive; negative”.

For `O=[N+]([O-])c1cc2[nH]c3ccc4ccc(O)cc4c3c2c2ccccc12`, the mutagenic call was “active; positive” under setting [1]; “active; positive” (Test System: AMES SALMONELLA TYPHIMURIUM, Strain/Indicator: TA98, Metabolic Activation: RAT, LIVER, S-9, 3-METHYLCHOLANTHRENE, Method: STANDARD PLATE); “active; positive” under setting [2]; “active; positive” (Test System: AMES SALMONELLA TYPHIMURIUM, Strain/Indicator: TA100, Metabolic Activation: RAT, LIVER, S-9, 3-METHYLCHOLANTHRENE, Method: STANDARD PLATE).

Turning to `CC(=O)CC(=O)CCC(=O)O`, the mutagenic call (Test System: AMES SALMONELLA TYPHIMURIUM, Strain/Indicator: TA98, Metabolic Activation: HAMSTER, LIVER, S-9, AROCLOR 1254, Method: STANDARD PLATE) is “inactive; negative”; the mutagenic call under setting [1] is “inactive; negative”; the mutagenic call under setting [3] is “inactive; negative”; the mutagenic call (Test System: AMES SALMONELLA TYPHIMURIUM, Strain/Indicator: TA100, Metabolic Activation: HAMSTER, LIVER, S-9, AROCLOR 1254, Method: STANDARD PLATE) was “inactive; negative”; the mutagenic call under setting [2] was “inactive; negative”; the mutagenic call (Test System: AMES SALMONELLA TYPHIMURIUM, Strain/Indicator: TA100, Metabolic Activation: RAT, LIVER, S-9, AROCLOR 1254, Method: STANDARD PLATE) was “inactive; negative”. Also, the mutagenic call by setting is: (Test System: AMES SALMONELLA TYPHIMURIUM, Strain/Indicator: TA1535, Metabolic Activation: HAMSTER, LIVER, S-9, AROCLOR 1254, Method: STANDARD PLATE) “inactive; negative”; (Test System: AMES SALMONELLA TYPHIMURIUM, Strain/Indicator: TA1535, Metabolic Activation: NONE, Method: STANDARD PLATE) “inactive; negative”; (Test System: AMES SALMONELLA TYPHIMURIUM, Strain/Indicator: TA1535, Metabolic Activation: RAT, LIVER, S-9, AROCLOR 1254, Method: STANDARD PLATE) “inactive; negative”; (Test System: AMES SALMONELLA TYPHIMURIUM, Strain/Indicator: TA1537, Metabolic Activation: HAMSTER, LIVER, S-9, AROCLOR 1254, Method: STANDARD PLATE) “inactive; negative”; (Test System: AMES SALMONELLA TYPHIMURIUM, Strain/Indicator: TA1537, Metabolic Activation: NONE, Method: STANDARD PLATE) “inactive; negative”; (Test System: AMES SALMONELLA TYPHIMURIUM, Strain/Indicator: TA1537, Metabolic Activation: RAT, LIVER, S-9, AROCLOR 1254, Method: STANDARD PLATE) “inactive; negative”. Also, the mutagenic call is “inactive; negative” (Test System: AMES SALMONELLA TYPHIMURIUM, Strain/Indicator: TA1538, Metabolic Activation: HAMSTER, LIVER, S-9, AROCLOR 1254, Method: STANDARD PLATE); “inactive; negative” (Test System: AMES SALMONELLA TYPHIMURIUM, Strain/Indicator: TA1538, Metabolic Activation: NONE, Method: STANDARD PLATE); “inactive; negative” (Test System: AMES SALMONELLA TYPHIMURIUM, Strain/Indicator: TA1538, Metabolic Activation: RAT, LIVER, S-9, AROCLOR 1254, Method: STANDARD PLATE); “inactive; negative” (Test System: CHINESE HAMSTER V-79, Strain/Indicator: V-79 (HGPRT)/6-THIOGUANINE, Metabolic Activation: NONE); “inactive; negative. reevaluation of results: negative” (Test System: MOUSE LYMPHOMA, Strain/Indicator: L5178Y (TK+/TK-), Metabolic Activation: NONE, Method: SUSPENSION/PLATE); “active; positive. reevaluation of results: positive” (Test System: MOUSE LYMPHOMA, Strain/Indicator: L5178Y (TK+/TK-), Metabolic Activation: RAT, LIVER, S-9, AROCLOR 1254, Method: SUSPENSION/PLATE).

Regarding `Cn1c(N)nc2c3ccncc3ccc21`, the mutagenic call under setting [3] was “active; positive”.
